Measurements from US20070010465A1 (priority 2005, published 2007).

Tests used:
[1] = several oncolytics, preclinical models; cited from earlier work
P-gp = target: T1, P-gp (Homo sapiens, UniProt P08183); assay: cellular P-gp function, DiOC2 accumulation assay with flow cytometry on circulating NK cells and leukemic blasts; type: in vivo, Patients with AML
T1 construct: Pharmacodynamic assessments of cellular P-gp function were conducted using an accumulation assay with DiOC2 and flow cytometry; endogenous in cells; host or cells: circulating NK cells and leukemic blasts from AML patients
Description: Cytarabine was also administered (100 mg/m^2/day) starting after the first dose of daunorubicin as a continuous intravenous infusion on days 1-7. Blood samples were taken at intervals for pharmacokinetic and pharmacodynamic studies. Pharmacokinetic drug determinations were conducted by HPLC. Pharmacodynamic assessments of cellular P-gp function were conducted using an accumulation assay with DiOC2 and flow cytometry. P-gp function was assessed on circulating natural killer (NK) cells and leukemic blasts. […] Means of 3 patients for each time point are shown.

[2] = test system: acute myelogenous leukemia; conditions: valspodar arm, enrollment halted; cited from earlier work

T1 sequence (P08183 whole entry): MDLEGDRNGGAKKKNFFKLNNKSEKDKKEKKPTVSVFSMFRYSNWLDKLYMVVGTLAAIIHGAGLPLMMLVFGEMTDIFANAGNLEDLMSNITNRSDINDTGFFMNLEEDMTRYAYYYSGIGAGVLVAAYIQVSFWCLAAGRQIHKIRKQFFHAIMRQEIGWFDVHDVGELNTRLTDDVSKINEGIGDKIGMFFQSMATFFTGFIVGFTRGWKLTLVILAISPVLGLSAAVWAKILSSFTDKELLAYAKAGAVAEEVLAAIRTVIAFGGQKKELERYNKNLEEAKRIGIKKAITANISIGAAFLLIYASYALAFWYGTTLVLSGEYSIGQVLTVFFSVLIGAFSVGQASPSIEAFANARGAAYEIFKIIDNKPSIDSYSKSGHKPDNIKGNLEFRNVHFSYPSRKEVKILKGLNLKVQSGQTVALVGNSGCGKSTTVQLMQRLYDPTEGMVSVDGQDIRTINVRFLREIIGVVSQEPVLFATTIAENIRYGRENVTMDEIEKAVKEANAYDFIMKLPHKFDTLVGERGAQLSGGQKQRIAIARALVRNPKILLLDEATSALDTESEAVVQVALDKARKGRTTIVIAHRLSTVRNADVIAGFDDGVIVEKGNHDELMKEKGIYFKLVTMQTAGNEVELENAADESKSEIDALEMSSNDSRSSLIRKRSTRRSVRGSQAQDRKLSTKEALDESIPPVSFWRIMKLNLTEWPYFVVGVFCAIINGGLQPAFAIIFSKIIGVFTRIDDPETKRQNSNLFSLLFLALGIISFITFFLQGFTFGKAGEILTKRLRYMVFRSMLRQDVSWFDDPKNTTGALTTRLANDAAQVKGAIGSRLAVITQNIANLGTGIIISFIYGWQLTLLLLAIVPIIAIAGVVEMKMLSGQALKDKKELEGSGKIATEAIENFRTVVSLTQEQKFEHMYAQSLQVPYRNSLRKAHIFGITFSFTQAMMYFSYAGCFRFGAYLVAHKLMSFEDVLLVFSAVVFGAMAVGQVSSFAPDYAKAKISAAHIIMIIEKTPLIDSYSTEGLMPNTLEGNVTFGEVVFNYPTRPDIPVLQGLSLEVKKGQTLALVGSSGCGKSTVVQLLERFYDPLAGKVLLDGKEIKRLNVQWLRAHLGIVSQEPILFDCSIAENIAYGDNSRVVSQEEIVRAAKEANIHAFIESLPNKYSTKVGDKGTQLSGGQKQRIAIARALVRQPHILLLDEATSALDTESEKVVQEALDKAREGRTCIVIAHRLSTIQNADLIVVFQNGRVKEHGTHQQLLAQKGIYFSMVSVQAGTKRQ

Row | time to potent inhibition of P-gp function after start of zosuquidar infusion (P-gp; 700 mg/day continuous intravenous infusion) | duration of inhibition of P-gp functional activity after zosuquidar infusion was halted (P-gp; after 72 hour infusion) | Compound | pharmacokinetic (PK) interactions with oncolytics [1] | early mortality [2]
1 | ≤ 2 h | at least 12 hours | O[C@@H](COc1cccc2ncccc12)CN1CCN([C@@H]2c3ccccc3[C@@H]3[C@H](c4ccccc42)C3(F)F)CC1 [Zosuquidar] | minimal | 
2 |  |  | C/C=C/C[C@@H](C)C(=O)[C@H]1C(=O)N[C@@H](C(C)C)C(=O)N(C)CC(=O)N(C)[C@@H](CC(C)C)C(=O)N[C@@H](C(C)C)C(=O)N(C)[C@@H](CC(C)C)C(=O)N[C@@H](C)C(=O)N[C@H](C)C(=O)N(C)[C@@H](CC(C)C)C(=O)N(C)[C@@H](CC(C)C)C(=O)N(C)[C@@H](C(C)C)C(=O)N1C [valspodar] |  | excessive early mortality
